# From patent US5143938A, “Propanamines, their pharmacological properties and their application for therapeutic in particular antidiarrheal, purposes” (Jouveinal S.A., priority 1990, dated 1992)
# Assays:
# [1] = Antidiarrheal activity in rats: inhibition of castor oil-induced diarrhea; format: in vivo
# Description: This test is performed by studying the activity of the test compounds with respect to the diarrheaphenomenon caused in animals by the administration of castor oil.
# The method consists in administering the test product in solution orally, one hour before the administration, also oral, of 1.0 ml of castor oil per animal.
# The animals are then observed, and the number of rats which emit liquid stools is determined on an all-or-nothing basis every hour during the seven hours following administration of the diarrheal agent.
# [2] = Activity with respect to gastrointestinal transit in rats (semi-solid charcoal meal); format: in vivo; conditions: for effect on intestinal transit, in words / Activity with respect to intestinal transit, percentage change relative to the controls: 30 mg/kg oral; for Activity with respect to intestinal transit, percentage change relative to the controls: one hour before meal, positive = accelerated, negative = slowed down
# Description: The test is carried out according to the technique described by Green A. F., J. Pharmacol., 1959, 14, 26-34. It consists in determining in rats the distance travelled in the animal's intestine by a semi-solid meal after a specified time.
# The test products are administered orally one hour before gavage of the animal with a semi-solid meal containing vegetable charcoal as a tracer. 15 minutes after the administration, the animal is sacrificed and the distance travelled in the intestine by the meal is expressed in relation to the total length.
# This ratio, for the treated animals, is compared with that observed in control animals receiving only the meal.
# In this test, the products of the invention were administered on the basis of 30 mg/kg and the results expressed as a percentage change relative to the controls, the ratio being positive when transit is accelerated and negative when it is slowed down; […]
# in vivo = conditions: mouse, po
# [3] = mouse, in vivo
# [4] = Rattus norvegicus, po, 3 h; read-out: ED 50 at 3 h., antidiarrheal activity
Compound,"ED50 [1, 4]","Activity with respect to intestinal transit, percentage change relative to the controls [2]",further results
"CCC(CCC1(c2cc(OC)cc(OC)c2)OCCO1)(NC)c1ccccc1 (stereo not drawn) [Example 3.c, 2-(3-N-methylamino-3-phenyl-pentan-1-yl)-2-(3,5-dimethoxyphenyl)-1,3-dioxolane]",16 mg/kg,-3%,"effect on intestinal transit, in words [2]: zero"
"CCC(CCC1(c2cc(OC)c(OC)c(OC)c2)OCCO1)(NC)c1ccc(C(F)(F)F)cc1 (stereo not drawn) [Example 3.f, 2-[3-N-Methylamino-3-(4-trifluoromethylphenyl)-pentan-1-yl]-2-(3,4,5-trimethoxyphenyl)-1,3-dioxolane]",6 mg/kg,-17%,
"CCC(CCC(=O)c1cc(OC)c(OC)c(OC)c1)(c1ccc(Cl)cc1)N(C)C (stereo not drawn) [Example 9.a, 4-(4-chlorophenyl)-4-N,N-dimethylamino-1-(3,4,5-trimethoxyphenyl)-hexan-1-one]",6 mg/kg,-15%,
"CCC(CCC(=O)c1cc(OC)c(OC)c(OC)c1)(c1ccc(C)cc1)N(C)C (stereo not drawn) [Example 9.b.2, 4-N,N-dimethylamino-4-(4-methylphenyl)-1-(3,4,5-trimethoxyphenyl)-hexan-1-one]",2 mg/kg,-14%,
"CCC(CCC(=O)c1cc(OC)c(OC)c(OC)c1)(c1ccc(C(F)(F)F)cc1)N(C)C (stereo not drawn) [Example 9.c, 4-N,N-dimethylamino-4-(4-trifluoromethvlphenvl)-1-(3,4,5-trimethoxyphenyl)-hexan-1-one]",15 mg/kg,+2%,"effect on intestinal transit, in words [2]: zero"
"CCC(CCC(=O)c1ccc(Cl)c(Cl)c1)(c1ccccc1)N(C)C (stereo not drawn) [Example 9.g, 1-(3,4-dichlorophenyl)-4-N,N-dimethylamino-4-phenyl-hexan-1-one]",3 mg/kg,-25%,
"C=CCN(C)C(CC)(CCC(=O)c1ccccc1)c1ccccc1 (stereo not drawn) [Example 10, N-allyl-1,4-diphenyl-4-N-methylamino-hexan-1-one]",24.2 mg/kg,-6%,
"CCC(CCC1(c2ccccc2)SCCS1)(c1ccccc1)N(C)C (stereo not drawn) [Example 12, 2-(3-N,N-dimethylamino-3-phenyl-pentan-1-yl)-2-phenyl-1,3-dithiolane]",23.1 mg/kg,-12%,
"CN(C)C(=O)C(CCN1CCC(O)(c2ccc(Cl)cc2)CC1)(c1ccccc1)c1ccccc1 [Loperamide, 4-(4-chlorophenyl)-4-hydroxy-N,N-dimethyl-α,α-diphenyl-1-piperidinebutanamide, reference compound]",,,"TD50 (in vivo): 75 mg/kg; ED50 ([1]; Rattus norvegicus, po, 3 h, read-out: ED 50 at 3 h., antidiarrheal activity): 0.2 mg/kg; toxicity at the administration doses, in words [3]: too toxic; ED50 ([2]; Rattus norvegicus, po, read-out: ED50 slowing down transit by 50%): 1.79 mg/kg"
"CN1CC[C@]23c4c5ccc(O)c4O[C@H]2[C@@H](O)C=C[C@H]3[C@H]1C5 [Morphine, reference compound]",,,"ED 50 at 3 h., antidiarrheal activity ([1]; oral, one hour before 1.0 ml castor oil; inhibition of effect in 50% of animals at 3 h): 0.83 mg/kg; ED50 slowing down transit by 50% ([2]; oral, dose at which activity is -50%): 10 mg/kg"
